The record followed here is patent publication US10472341B2, “Bicyclic tetrahydrothiazepine derivatives useful for the treatment of neoplastic and/or infectious diseases” (APEIRON BIOLOGICS AG, priority 2015, dated 2019).

Assay type in all cases: cell-based
The subject of test [1] is aCD3/aCD28-stimulated human PBMCs. Put plainly: Cytokine production in aCD3/aCD28 stimulated human PBMCs. To be noted: PBMC, 18 h. Put shortly: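 Ficoll-isolated human PBMCs at 1e6 cells/mL in X-Vivo15, stimulated with soluble anti-CD3/CD28 (OKT3 and 28.2, 1 μg/mL each) plus compound for 18 h at 37° C. Supernatant cytokines quantified by MSD or HTRF.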
The test system of test [2] is CD4 T cells. Put plainly: CD69 expression on aCD3/aCD28 stimulated isolated human CD4 T cells (flow cytometry). To be noted: 24 h after TCR stimulation, read-out: Activity Class CD69 (CD4). How it is done:
(§1) Isolated T cells were plated in Xvivo medium at 1.5*10 ^5 cells per in 96 well culture plates and TCR-stimulated with anti-CD3/28 mAbs in the presence of compound as indicated. Cytokine production was determined at 24 h or 48 h following TCR stimulation in cell culture supernatants using commercially available ELISA kits (BD and eBioscience) as recommended by the manufacturer. T cell proliferation and CD25 expression (CD25-PC5 reagent purchased from Beckman Coulter) was determined by flow cytometry (Beckman-Coulter FC500) and analysed with Kaluza Software. For measurement of CD69 expression, isolated CD4 and CD8 T cells were plated in Xvivo medium at […] per in 96 well culture plates and TCR-stimulated with anti-CD3/28 mAbs in the presence of compound. CD69 expression was determined at 24 h following TCR stimulation by flow cytometry (CD4eF450, CD8APCeF780 and CD69-PC7 reagent purchased from eBioscience) and analysed with Kaluza Software.
(§2) For measurement of CD69 expression, isolated CD4 and CD8 T cells were plated in Xvivo medium at 80000 cells per in 96 well culture plates and TCR-stimulated with anti-CD3/28 mAbs in the presence of compound. CD69 expression was determined at 24 h following TCR stimulation by flow cytometry (CD4eF450, CD8APCeF780 and CD69-PC7 reagent purchased from eBioscience) and analysed with Kaluza Software.

Test [3] deals with CD8 T cells. Briefly: CD69 expression on aCD3/aCD28 stimulated isolated human CD8 T cells (flow cytometry). To be noted: T-cell, 24 h after TCR stimulation, read-out: Activity Class CD69 (CD8). As for the experimental part: as §1, §2
On the technique in general: In flow cytometry, cells or beads pass a laser one at a time.

Setting [4] is: enhancement of IFN-γ production, read-out: Activity Class IFN-γ.
The mark [5] stands for this setting: enhancement of IL-2 production, read-out: Activity Class IL-2.

SMILES strings stand for the structures. Structures can show the parent of a compound that is named as a salt. Where two headings read alike, the source gives them in different places.

Take `N[C@H]1CS(=O)(=O)c2cc(F)c(C(=O)NCCCC(F)(F)F)cc2N(Cc2ccc(F)cc2)C1=O` [Example 129, (3R)-3-amino-8-fluoro-5-[(4-fluorophenyl)methyl]-1,1,4-trioxo-N-(4,4,4-trifluorobutyl)-2,3,4,5-tetrahydro-1λ^6,5-benzothiazepine-7-carboxamide hydrochloride]: the EC50 in test [1] (setting [4]) is below 1580 nM; in test [1] (setting [5]), 1580 to 5010 nM; in test [2], below 1580 nM; in test [3], below 1580 nM.
`N[C@H]1CS(=O)(=O)c2cc(F)c(C(=O)NC3CC3(F)F)cc2N(Cc2ccc(F)cc2)C1=O` (stereo partly drawn) [Example 130, (3R)-3-amino-N-(2,2-difluorocyclopropyl)-8-fluoro-5-[(4-fluorophenyl)methyl]-1,1,4-trioxo-2,3,4,5-tetrahydro-1λ^6,5-benzothiazepine-7-carboxamide hydrochloride]: the EC50 in test [1] (setting [4]) was 1580 to 5010 nM; in test [1] (setting [5]), above 5010 nM; in test [2], above 5010 nM; in test [3], 1580 to 5010 nM.
`CCCCNC(=O)c1cc2c(cc1F)SC[C@H](N)C(=O)N2Cc1ccc(F)cc1` [Example 131, (3R)-3-amino-N-butyl-8-fluoro-5-[(4-fluorophenyl)methyl]-4-oxo-2,3,4,5-tetrahydro-1,5-benzothiazepine-7-carboxamide hydrochloride]: the EC50 in test [1] (setting [4]) is 1580 to 5010 nM; in test [1] (setting [5]), above 5010 nM; in test [2], above 5010 nM; in test [3], above 5010 nM.
Regarding `N[C@H]1CSc2cc(F)c(C(=O)NCc3ccccc3)cc2N(Cc2ccc(F)cc2)C1=O` [Example 132, (3R)-3-amino-N-benzyl-8-fluoro-5-[(4-fluorophenyl)methyl]-4-oxo-2,3,4,5-tetrahydro-1,5-benzothiazepine-7-carboxamide hydrochloride], the EC50 was 1580 to 5010 nM in test [1] (setting [4]), above 5010 nM in test [1] (setting [5]), above 5010 nM in test [2] and above 5010 nM in test [3].
With `CCCCNC(=O)c1cc2c(cc1F)S(=O)(=O)C[C@H](N)C(=O)N2Cc1ccc(F)cc1` [Example 133, (3R)-3-amino-N-butyl-8-fluoro-5-[(4-fluorophenyl)methyl]-1,1,4-trioxo-2,3,4,5-tetrahydro-1λ^6,5-benzothiazepine-7-carboxamide hydrochloride], the EC50 is below 1580 nM in test [1] (setting [4]), 1580 to 5010 nM in test [1] (setting [5]), below 1580 nM in test [2] and below 1580 nM in test [3].
For `N[C@H]1CS(=O)(=O)c2cc(F)c(C(=O)NCc3ccccc3)cc2N(Cc2ccc(F)cc2)C1=O` [Example 134, (3R)-3-amino-N-benzyl-8-fluoro-5-[(4-fluorophenyl)methyl]-1,1,4-trioxo-2,3,4,5-tetrahydro-1λ^6,5-benzothiazepine-7-carboxamide hydrochloride], the EC50 in test [1] (setting [4]), in test [1] (setting [5]), in test [2] and in test [3] was below 1580 nM in each case.
Regarding `N[C@H]1CS(=O)(=O)c2cc(F)c(C(=O)NCCC3CCOCC3)cc2N(Cc2ccc(Cl)cc2)C1=O` [Example 135, (3R)-3-amino-5-[(4-chlorophenyl)methyl]-8-fluoro-N-[2-(oxan-4-yl)ethyl]-1,1,4-trioxo-2,3,4,5-tetrahydro-1λ^6,5-benzothiazepine-7-carboxamide hydrochloride], the EC50 in test [1] (setting [4]) is below 1580 nM; in test [1] (setting [5]) it was 1580 to 5010 nM; in test [2], 1580 to 5010 nM; in test [3] it was 1580 to 5010 nM.
Take `N[C@H]1CS(=O)(=O)c2cc(F)c(C(=O)NCCCC(F)(F)F)cc2N(Cc2ccccc2)C1=O` [Example 136, (3R)-3-amino-5-benzyl-8-fluoro-1,1,4-trioxo-N-(4,4,4-trifluorobutyl)-2,3,4,5-tetrahydro-1λ^6,5-benzothiazepine-7-carboxamide hydrochloride]: the EC50 in test [1] (setting [4]), in test [1] (setting [5]), in test [2] and in test [3] was below 1580 nM in each case.
Turning to `COc1ccc(CNC(=O)c2cc3c(cc2F)S(=O)(=O)C[C@H](N)C(=O)N3Cc2ccc(Cl)cc2)cc1` [Example 137, (3R)-3-amino-5-[(4-chlorophenyl)methyl]-8-fluoro-N-[(4-methoxyphenyl)methyl]-1,1,4-trioxo-2,3,4,5-tetrahydro-1λ^6,5-benzothiazepine-7-carboxamide hydrochloride], the EC50 in test [1] (setting [4]), in test [1] (setting [5]), in test [2] and in test [3] was below 1580 nM in each case.
On to `N[C@H]1CS(=O)(=O)c2cc(F)c(C(=O)NCC3CCOCC3)cc2N(Cc2ccc(F)cc2)C1=O` [Example 139, (3R)-3-amino-8-fluoro-5-[(4-fluorophenyl)methyl]-N-[(oxan-4-yl)methyl]-1,1,4-trioxo-2,3,4,5-tetrahydro-1λ^6,5-benzothiazepine-7-carboxamide hydrochloride], for which the EC50 in test [1] (setting [4]) was 1580 to 5010 nM; in test [1] (setting [5]), 1580 to 5010 nM; in test [2] it was 1580 to 5010 nM; in test [3], above 5010 nM.
`N[C@H]1CS(=O)(=O)c2cc(F)c(C(=O)NC3CC(F)(F)C3)cc2N(Cc2ccc(F)cc2)C1=O` [Example 140, (3R)-3-amino-N-(3,3-difluorocyclobutyl)-8-fluoro-5-[(4-fluorophenyl)methyl]-1,1,4-trioxo-2,3,4,5-tetrahydro-1λ^6,5-benzothiazepine-7-carboxamide hydrochloride]: the EC50 in test [1] (setting [4]) was 1580 to 5010 nM; in test [1] (setting [5]) it was 1580 to 5010 nM; in test [2] it was 1580 to 5010 nM; in test [3], above 5010 nM.
Turning to `COc1ccc(CN2C(=O)[C@@H](N)CS(=O)(=O)c3cc(F)c(C(=O)NCCCC(F)(F)F)cc32)cc1` [Example 141, (3R)-3-amino-8-fluoro-5-[(4-methoxyphenyl)methyl]-1,1,4-trioxo-N-(4,4,4-trifluorobutyl)-2,3,4,5-tetrahydro-1λ^6,5-benzothiazepine-7-carboxamide], the EC50 in test [1] (setting [4]), in test [1] (setting [5]), in test [2] and in test [3] was below 1580 nM throughout.
For `COc1ccc(CN2C(=O)[C@@H](N)CS(=O)(=O)c3cc(F)c(C(=O)NCC4CCOCC4)cc32)cc1` [Example 142, (3R)-3-amino-8-fluoro-5-[(4-methoxyphenyl)methyl]-N-[(oxan-4-yl)methyl]-1,1,4-trioxo-2,3,4,5-tetrahydro-1λ^6,5-benzothiazepine-7-carboxamide], the EC50 is 1580 to 5010 nM in test [1] (setting [4]), 1580 to 5010 nM in test [1] (setting [5]), above 5010 nM in test [2] and above 5010 nM in test [3].
In the case of `COc1ccc(CN2C(=O)[C@@H](N)CS(=O)(=O)c3cc(F)c(C(=O)NC4CC4(F)F)cc32)cc1` (stereo partly drawn) [Example 143, (3R)-3-amino-N-(2,2-difluorocyclopropyl)-8-fluoro-5-[(4-methoxyphenyl)methyl]-1,1,4-trioxo-2,3,4,5-tetrahydro-1λ^6,5-benzothiazepine-7-carboxamide], the EC50 in test [1] (setting [4]) is 1580 to 5010 nM; in test [1] (setting [5]) it was 1580 to 5010 nM; in test [2] it was 1580 to 5010 nM; in test [3], above 5010 nM.
`N[C@H]1CS(=O)(=O)c2ccc(C(=O)NC3CC(F)(F)C3)cc2N(Cc2ccc(Cl)cc2)C1=O` [Example 145, (3R)-3-amino-5-[(4-chlorophenyl)methyl]-N-(3,3-difluorocyclobutyl)-1,1,4-trioxo-2,3,4,5-tetrahydro-1λ^6,5-benzothiazepine-7-carboxamide]: the EC50 in test [1] (setting [4]) was 1580 to 5010 nM; in test [1] (setting [5]), 1580 to 5010 nM; in test [2], below 1580 nM; in test [3], below 1580 nM.
